Experimental data from patent US9371363B2, “Peptides and their use” (Novabiotics Limited, priority 2007, dated 2016).
Read-outs that look alike come from different tables or passages of the source. Where no end group is shown, it is not given here.

Legend:
Format in all cases: cell-based
P. acnes = tested on: P. acnes
Procedure: (§1) Broth Dilution Antibacterial Susceptibility Testing
(§2) The sensitivity of relevant bacterial strains to the peptides (was determined using Clinical Laboratory Standard Institute (CLSI; formerly NCCLS) Approved Standards. Bacterial susceptibility was tested using “Methods for Dilution Antimicrobial Susceptibility Tests for Bacteria That Grow […]; Approved Standard—Seventh Edition M7-A7”

Ps. aeruginosa = tested on: Ps. aeruginosa
Procedure: as §1, §2

S. aureus = tested on: S. aureus
Procedure: as §1, §2

E. coli = tested on: E. coli
Procedure: as §1, §2

Str. pyogenes = tested on: Str. pyogenes
Procedure: as §1, §2

[1] = Ps. aeruginosa, CLSI broth dilution
[2] = P. acnes, values marked * in mg/ml
[3] = Ps. aeruginosa, values marked * in mg/ml
[4] = S. aureus, values marked * in mg/ml

Molecule: CC(=O)N[C@H](CCCNC(=N)N)C(=O)N[C@H](CCCNC(=N)N)C(=O)N[C@H](CCCNC(=N)N)C(=O)N[C@H](CCCNC(=N)N)C(=O)N[C@H](CCCNC(=N)N)C(=O)N[C@H](CCCNC(=N)N)C(=O)N[C@H](CCCNC(=N)N)C(=O)N[C@H](CCCNC(=N)N)C(=O)N[C@H](CCCNC(=N)N)C(=O)N[C@H](CCCNC(=N)N)C(=O)N[C@H](CCCNC(=N)N)C(=O)N[C@H](CCCNC(=N)N)C(=O)N[C@H](CCCNC(=N)N)C(N)=O [NP340, Ac-dRdRdRdRdRdRdRdRdRdRdRdRdR—NH2 (SEQ ID NO: 31)]
- Minimum Inhibitory Concentration, antimicrobial activity, P. acnes (P. acnes): 0.02 mM
- Minimum Inhibitory Concentration, antimicrobial activity, Ps. aeruginosa (Ps. aeruginosa; [1]): 0.125 mM
- Minimum Inhibitory Concentration, antimicrobial activity, S. aureus (S. aureus): 0.25 mM

Molecule: (K)n, n = 103-205 [NP101]
- Minimum Inhibitory Concentration, antimicrobial activity, P. acnes (P. acnes; [2]): 0.1* mg/ml
- Minimum Inhibitory Concentration, antimicrobial activity, Ps. aeruginosa (Ps. aeruginosa; [3]): 0.125* mg/ml
- Minimum Inhibitory Concentration, antimicrobial activity, S. aureus (S. aureus; [4]): <0.0313* mg/ml

Molecule: RRVVRRVVRR [NP311, RRVVRRVVRR (SEQ ID NO: 11)]
- Minimum Inhibitory Concentration, antimicrobial activity, P. acnes (P. acnes): 2 mM
- Minimum Inhibitory Concentration, antimicrobial activity, S. aureus (S. aureus): >2 mM

Molecule: N=C(N)NCCC[C@H](NC(=O)[C@H](CCCNC(=N)N)NC(=O)[C@H](CCCNC(=N)N)NC(=O)[C@H](CCCNC(=N)N)NC(=O)[C@H](CCCNC(=N)N)NC(=O)[C@H](CCCNC(=N)N)NC(=O)[C@H](CCCNC(=N)N)NC(=O)[C@H](CCCNC(=N)N)NC(=O)[C@H](CCCNC(=N)N)NC(=O)[C@H](CCCNC(=N)N)NC(=O)[C@H](CCCNC(=N)N)NC(=O)[C@H](CCCNC(=N)N)NC(=O)[C@@H](N)CCCNC(=N)N)C(=O)O [NP318, RRRRRRRRRRRRR (SEQ ID NO: 14)]
- Minimum Inhibitory Concentration, antimicrobial activity, P. acnes (P. acnes): <0.0156 mM
- Minimum Inhibitory Concentration, antimicrobial activity, S. aureus (S. aureus): 0.125 mM

Molecule: CC(=O)N[C@@H](CCCNC(=N)N)C(=O)N[C@@H](CCCNC(=N)N)C(=O)N[C@@H](CCCNC(=N)N)C(=O)N[C@@H](CCCNC(=N)N)C(=O)N[C@@H](CCCNC(=N)N)C(=O)N[C@@H](CCCNC(=N)N)C(=O)N[C@@H](CCCNC(=N)N)C(=O)N[C@@H](CCCNC(=N)N)C(=O)N[C@@H](CCCNC(=N)N)C(=O)N[C@@H](CCCNC(=N)N)C(=O)N[C@@H](CCCNC(=N)N)C(=O)N[C@@H](CCCNC(=N)N)C(=O)N[C@@H](CCCNC(=N)N)C(N)=O [NP338]
- Minimum Inhibitory Concentration, antimicrobial activity, P. acnes (P. acnes): 0.005 mM
- Minimum Inhibitory Concentration, antimicrobial activity, Ps. aeruginosa (Ps. aeruginosa; [1]): 0.0625 mM

Molecule: N=C(N)NCCC[C@H](NC(=O)[C@H](CCCNC(=N)N)NC(=O)[C@H](CCCNC(=N)N)NC(=O)[C@H](CCCNC(=N)N)NC(=O)[C@H](CCCNC(=N)N)NC(=O)[C@H](CCCNC(=N)N)NC(=O)[C@H](CCCNC(=N)N)NC(=O)[C@H](CCCNC(=N)N)NC(=O)[C@H](CCCNC(=N)N)NC(=O)[C@H](CCCNC(=N)N)NC(=O)[C@H](CCCNC(=N)N)NC(=O)[C@H](CCCNC(=N)N)NC(=O)[C@@H](N)CCCNC(=N)N)C(=O)O [NP351, RRRRRRRRRRRRR (SEQ ID NO: 14)]
- Minimum Inhibitory Concentration, antimicrobial activity, Ps. aeruginosa (Ps. aeruginosa; [1]): 0.125 mM

Molecule: KKKKKKK [NP104, KKKKKKK (SEQ ID NO: 35)]
- Minimum Inhibitory Concentration, antimicrobial activity, E. coli (E. coli): >2 mM
- Minimum Inhibitory Concentration, antimicrobial activity, S. aureus (S. aureus): >2 mM
- Minimum Inhibitory Concentration, antimicrobial activity, Str. pyogenes (Str. pyogenes): 1 mM

Molecule: (R)n, n = 28-86 [NP121]
- Minimum Inhibitory Concentration, antimicrobial activity, P. acnes (P. acnes; [2]): 0.01* mg/ml
- Minimum Inhibitory Concentration, antimicrobial activity, Ps. aeruginosa (Ps. aeruginosa; [3]): 0.0625* mg/ml
- Minimum Inhibitory Concentration, antimicrobial activity, S. aureus (S. aureus; [4]): 0.0313* mg/ml

Molecule: (H)n, n = 32-161 [NP131]
- Minimum Inhibitory Concentration, antimicrobial activity, P. acnes (P. acnes; [2]): >0.1* mg/ml
- Minimum Inhibitory Concentration, antimicrobial activity, S. aureus (S. aureus; [4]): >2* mg/ml

Molecule: KKKKKKKKKKKKKKK [NP348]
- Minimum Inhibitory Concentration, antimicrobial activity, P. acnes (P. acnes; P. acnes, CLSI broth dilution): 0.0625 mM
- Minimum Inhibitory Concentration, antimicrobial activity, S. aureus (S. aureus; S. aureus, CLSI broth dilution): 0.25 mM

Molecule: N=C(N)NCCC[C@@H](N)C(=O)N[C@H](CCCNC(=N)N)C(=O)N[C@H](CCCNC(=N)N)C(=O)N[C@H](CCCNC(=N)N)C(=O)N[C@H](CCCNC(=N)N)C(=O)N[C@H](CCCNC(=N)N)C(=O)N[C@H](CCCNC(=N)N)C(=O)N[C@H](CCCNC(=N)N)C(=O)N[C@H](CCCNC(=N)N)C(=O)N[C@H](CCCNC(=N)N)C(=O)N[C@H](CCCNC(=N)N)C(=O)N[C@H](CCCNC(=N)N)C(=O)N[C@H](CCCNC(=N)N)C(=O)O [NP339, dRdRdRdRdRdRdRdRdRdRdRdRdR (SEQ ID NO: 31)]
- Minimum Inhibitory Concentration, antimicrobial activity, P. acnes (P. acnes): 0.02 mM
- Minimum Inhibitory Concentration, antimicrobial activity, Ps. aeruginosa (Ps. aeruginosa; [1]): 0.0625 mM
- Minimum Inhibitory Concentration, antimicrobial activity, S. aureus (S. aureus): 0.25 mM

Molecule: RRRRVVRRRR [NP310, RRRRVVRRRR (SEQ ID NO: 10)]
- Minimum Inhibitory Concentration, antimicrobial activity, P. acnes (P. acnes): 0.5 mM
- Minimum Inhibitory Concentration, antimicrobial activity, S. aureus (S. aureus): >2 mM

Molecule: N=C(N)NCCC[C@H](NC(=O)[C@H](CCCNC(=N)N)NC(=O)[C@H](CCCNC(=N)N)NC(=O)[C@H](CCCNC(=N)N)NC(=O)[C@H](CCCNC(=N)N)NC(=O)[C@H](CCCNC(=N)N)NC(=O)[C@H](CCCNC(=N)N)NC(=O)[C@H](CCCNC(=N)N)NC(=O)[C@H](CCCNC(=N)N)NC(=O)[C@H](CCCNC(=N)N)NC(=O)[C@@H](N)CCCNC(=N)N)C(=O)O [NP350, RRRRRRRRRRR (SEQ ID NO: 13)]
- Minimum Inhibitory Concentration, antimicrobial activity, Ps. aeruginosa (Ps. aeruginosa): 0.125 mM

Molecule: N=C(N)NCCC[C@H](NC(=O)[C@H](CCCNC(=N)N)NC(=O)[C@H](CCCNC(=N)N)NC(=O)[C@H](CCCNC(=N)N)NC(=O)[C@H](CCCNC(=N)N)NC(=O)[C@H](CCCNC(=N)N)NC(=O)[C@H](CCCNC(=N)N)NC(=O)[C@H](CCCNC(=N)N)NC(=O)[C@@H](N)CCCNC(=N)N)C(=O)O [NP316, RRRRRRRRR (SEQ ID NO: 12)]
- Minimum Inhibitory Concentration, antimicrobial activity, P. acnes (P. acnes; P. acnes, CLSI broth dilution): 0.0313 mM

Molecule: N=C(N)NCCC[C@H](NC(=O)[C@H](CCCNC(=N)N)NC(=O)[C@H](CCCNC(=N)N)NC(=O)[C@H](CCCNC(=N)N)NC(=O)[C@H](CCCNC(=N)N)NC(=O)[C@H](CCCNC(=N)N)NC(=O)[C@@H](N)CCCNC(=N)N)C(=O)O [NP105, RRRRRRR (SEQ ID NO: 23)]
- Minimum Inhibitory Concentration, antimicrobial activity, E. coli (E. coli): >2 mM
- Minimum Inhibitory Concentration, antimicrobial activity, S. aureus (S. aureus): >2 mM

Molecule: (K)n, n = 7-34 [NP106]
- Minimum Inhibitory Concentration, antimicrobial activity, P. acnes (P. acnes; [2]): 0.125* mg/ml

Molecule: N=C(N)NCCC[C@H](NC(=O)[C@H](CCCNC(=N)N)NC(=O)[C@H](CCCNC(=N)N)NC(=O)[C@H](CCCNC(=N)N)NC(=O)[C@H](CCCNC(=N)N)NC(=O)[C@H](CCCNC(=N)N)NC(=O)[C@H](CCCNC(=N)N)NC(=O)[C@H](CCCNC(=N)N)NC(=O)[C@H](CCCNC(=N)N)NC(=O)[C@H](CCCNC(=N)N)NC(=O)[C@H](CCCNC(=N)N)NC(=O)[C@H](CCCNC(=N)N)NC(=O)[C@@H](N)CCCNC(=N)N)C(=O)O [NP337, RRRRRRRRRRRRR (SEQ ID NO: 31)]
- Minimum Inhibitory Concentration, antimicrobial activity, P. acnes (P. acnes): 0.0025 mM
